Assays:
barnyard grass [1] = assay: Test Example 3: herbicidal effect by foliage application, Wagner pot (Table 18, symbol H); type: in vivo, barnyard grass (Echinochloa crus-galli); conditions: for herbicidal effect on barnyard grass (H): 320 g/ha
Summary of the method: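 Plants were sown in alluvial soil held under 0.1–0.5 cm standing water and grown 14 days in a greenhouse at 25–30 °C. An emulsifiable formulation, water-diluted to the set dose, was then sprayed onto the foliage, and effects were scored three weeks later using previously defined criteria.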

oval-leafed pondweed = assay: Test Example 1: herbicidal activity, application before weed generation under submerged conditions (Table 16, symbol C); type: in vivo, oval-leafed pondweed (Monochoria vaginalis); conditions: amount of applied herbicide 320 g/ha
Summary of the method: (§1)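 Emulsion formulation, water-diluted to set dose, was put onto the flooded surface (4 cm depth, alluvial soil) the same day weeds were sown and 2.5-leaf rice transplanted. After 3 weeks at 25-30 °C under glass, each species was rated 0 (≤5% kill) to 5 (≥90% kill).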

wild oat = assay: Test Example 5: herbicidal effect by foliage application, plastic box (Table 20, symbol I); type: in vivo, wild oat (Avena fatua); conditions: 320 g/ha; for I: wild oat, herbicidal effect grade: foliage application, three weeks after application
Summary of the method: (§2)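 Plants sown in sterilized diluvial soil and grown 14 days in a greenhouse at 25° C to 30° C, then sprayed on the foliage with the compound's emulsion diluted in water to a predetermined herbicide amount. Injury to weeds and crops scored three weeks after application on a visual rating scale.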

barnyard grass [2] = assay: Test Example 4: herbicidal effect by soil treatment (Table 19, symbol H); type: in vivo, barnyard grass (Echinochloa crus-galli); conditions: amount of applied herbicide 320 g/ha
Summary of the method: (§3)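 Three weeks of greenhouse growth at 25° C. to 30° C. followed a uniform surface spray of water-diluted emulsion at a predetermined herbicide amount. Seeds had been sown beforehand under about 1.5 cm of sterilized diluvial soil. Grading followed criteria set out in an earlier test.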

lambsquarters = assay: Test Example 5: herbicidal effect by foliage application, plastic box (Table 20, symbol O); type: in vivo, lambsquarters (Chenopodium album); conditions: 320 g/ha; for O: lambsquarters, herbicidal effect grade: foliage application, three weeks after application
Summary of the method: as §2

redroot pigweed [3] = assay: Test Example 4: herbicidal effect by soil treatment (Table 19, symbol N); type: in vivo, redroot pigweed (Amaranthus retroflexus); conditions: amount of applied herbicide 320 g/ha
Summary of the method: as §3

late watergrass = assay: Test Example 2: herbicidal activity, application during weed generation under submerged conditions (Table 17, symbol A); type: in vivo, late watergrass (Echinochloa oryzicola); conditions: AAH 320 g/ha; application during weed generation, submerged conditions
Summary of the method: (§4)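 Wagner pot, alluvial soil, 4 cm flood; mixed sowing of all species; greenhouse 25° C.–30° C. Emulsifiable formulation, water-diluted to predetermined dose, applied to paddy water at 1–2 leaf stage. Effect rated at 3 wk using the earlier test's scoring criteria.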

blackgrass [4] = assay: Test Example 5: herbicidal effect by foliage application, plastic box (Table 20, symbol J); type: in vivo, blackgrass (Alopecurus myosuroides); conditions: 320 g/ha; for J: blackgrass, herbicidal effect grade: foliage application, three weeks after application
Summary of the method: as §2

Japanese bulrush [5] = assay: Test Example 2: herbicidal activity, application during weed generation under submerged conditions (Table 17, symbol B); type: in vivo, Japanese bulrush (Schoenoplectus juncoides); conditions: AAH 320 g/ha; application during weed generation, submerged conditions
Summary of the method: as §4

persian speedwell = assay: Test Example 5: herbicidal effect by foliage application, plastic box (Table 20, symbol R); type: in vivo, Persian speedwell (Veronica persica); conditions: 320 g/ha; for R: persian speedwell, herbicidal effect grade: foliage application, three weeks after application
Summary of the method: as §2

redroot pigweed [6] = assay: Test Example 5: herbicidal effect by foliage application, plastic box (Table 20, symbol N); type: in vivo, redroot pigweed (Amaranthus retroflexus); conditions: 320 g/ha; for N: redroot pigweed, herbicidal effect grade: foliage application, three weeks after application
Summary of the method: as §2

Japanese bulrush [7] = assay: Test Example 1: herbicidal activity, application before weed generation under submerged conditions (Table 16, symbol B); type: in vivo, Japanese bulrush (Schoenoplectus juncoides); conditions: amount of applied herbicide 320 g/ha
Summary of the method: as §1

blackgrass [8] = assay: Test Example 4: herbicidal effect by soil treatment (Table 19, symbol J); type: in vivo, blackgrass (Alopecurus myosuroides); conditions: amount of applied herbicide 320 g/ha
Summary of the method: as §3

southern crabgrass [9] = assay: Test Example 5: herbicidal effect by foliage application, plastic box (Table 20, symbol F); type: in vivo, southern crabgrass (Digitaria ciliaris); conditions: 320 g/ha; for F: southern crabgrass, herbicidal effect grade: foliage application, three weeks after application
Summary of the method: as §2

green foxtail = assay: Test Example 5: herbicidal effect by foliage application, plastic box (Table 20, symbol G); type: in vivo, green foxtail (Setaria viridis); conditions: 320 g/ha; for G: green foxtail, herbicidal effect grade: foliage application, three weeks after application
Summary of the method: as §2

chickweed = assay: Test Example 4: herbicidal effect by soil treatment (Table 19, symbol P); type: in vivo, common chickweed (Stellaria media); conditions: amount of applied herbicide 320 g/ha
Summary of the method: as §3

southern crabgrass [10] = assay: Test Example 4: herbicidal effect by soil treatment (Table 19, symbol F); type: in vivo, southern crabgrass (Digitaria ciliaris); conditions: amount of applied herbicide 320 g/ha
Summary of the method: as §3

[11] = foliage application after 14-day growth, evaluated three weeks after application

SMILES: CCCC(=O)Oc1c(C)nn(C)c(=O)c1-c1c(-c2ccc(F)cc2OCC)sc2cc(F)ccc12 [3-012]
- herbicidal effect on H: barnyard grass (barnyard grass [1]; amount of applied herbicide 320 g/ha): 5 (Herbicidal rate of 90% or more (almost completely withered))
- Herbicidal effect, C: oval-leafed pondweed (oval-leafed pondweed): 4 (Herbicidal rate of 70% or more and less than 90%)
- I: wild oat, herbicidal effect grade (wild oat): 5 (Herbicidal rate of 90% or more (almost completely withered))
- herbicidal effect, H: barnyard grass (barnyard grass [2]): 3 (Herbicidal rate of 40% or more and less than 70%)
- O: lambsquarters, herbicidal effect grade (lambsquarters): 4 (Herbicidal rate of 70% or more and less than 90%)
- herbicidal effect, N: redroot pigweed (redroot pigweed [3]): 4 (Herbicidal rate of 70% or more and less than 90%)
- herbicidal effect rating, A: late watergrass (late watergrass): 4 (Herbicidal rate of 70% or more and less than 90%)
- J: blackgrass, herbicidal effect grade (blackgrass [4]): 5 (Herbicidal rate of 90% or more (almost completely withered))
- herbicidal effect rating, B: Japanese bulrush (Japanese bulrush [5]): 5 (Herbicidal rate of 90% or more (almost completely withered))
- R: persian speedwell, herbicidal effect grade (persian speedwell): 5 (Herbicidal rate of 90% or more (almost completely withered))
- N: redroot pigweed, herbicidal effect grade (redroot pigweed [6]): 5 (Herbicidal rate of 90% or more (almost completely withered))
- Herbicidal effect, B: Japanese bulrush (Japanese bulrush [7]): 5 (Herbicidal rate of 90% or more (almost completely withered))
- herbicidal effect, J: blackgrass (blackgrass [8]): 4 (Herbicidal rate of 70% or more and less than 90%)
- F: southern crabgrass, herbicidal effect grade (southern crabgrass [9]): 5 (Herbicidal rate of 90% or more (almost completely withered))
- G: green foxtail, herbicidal effect grade (green foxtail): 4 (Herbicidal rate of 70% or more and less than 90%)
- herbicidal effect, P: chickweed (chickweed): 4 (Herbicidal rate of 70% or more and less than 90%)
- herbicidal effect, F: southern crabgrass (southern crabgrass [10]): 3 (Herbicidal rate of 40% or more and less than 70%)

SMILES: COCCOc1ccc2c(-c3c(O)c(C)nn(C)c3=O)c(-c3ccccc3OC)sc2c1 [3-121]
- herbicidal effect on barnyard grass (H) (barnyard grass [1]): 5 (Herbicidal rate of 90% or more (almost completely withered))
- Herbicidal effect, C: oval-leafed pondweed (oval-leafed pondweed): 5 (Herbicidal rate of 90% or more (almost completely withered))
- I: wild oat, herbicidal effect grade (wild oat): 5 (Herbicidal rate of 90% or more (almost completely withered))
- H: barnyard grass, herbicidal effect grade (barnyard grass [2]): 5 (Herbicidal rate of 90% or more (almost completely withered))
- O: lambsquarters, herbicidal effect grade (lambsquarters): 5 (Herbicidal rate of 90% or more (almost completely withered))
- N: redroot pigweed, herbicidal effect grade (redroot pigweed [3]): 5 (Herbicidal rate of 90% or more (almost completely withered))
- herbicidal effect rating, A: late watergrass (late watergrass): 3 (Herbicidal rate of 40% or more and less than 70%)
- J: blackgrass, herbicidal effect grade (blackgrass [4]): 5 (Herbicidal rate of 90% or more (almost completely withered))
- herbicidal effect rating, B: Japanese bulrush (Japanese bulrush [5]): 3 (Herbicidal rate of 40% or more and less than 70%)
- R: persian speedwell, herbicidal effect grade (persian speedwell): 5 (Herbicidal rate of 90% or more (almost completely withered))
- N: redroot pigweed, herbicidal effect grade (redroot pigweed [6]): 5 (Herbicidal rate of 90% or more (almost completely withered))
- Herbicidal effect, B: Japanese bulrush (Japanese bulrush [7]): 5 (Herbicidal rate of 90% or more (almost completely withered))
- J: blackgrass, herbicidal effect grade (blackgrass [8]): 5 (Herbicidal rate of 90% or more (almost completely withered))
- F: southern crabgrass, herbicidal effect grade (southern crabgrass [9]): 5 (Herbicidal rate of 90% or more (almost completely withered))
- G: green foxtail, herbicidal effect grade (green foxtail): 5 (Herbicidal rate of 90% or more (almost completely withered))
- P: chickweed, herbicidal effect grade (chickweed): 5 (Herbicidal rate of 90% or more (almost completely withered))
- F: southern crabgrass, herbicidal effect grade (southern crabgrass [10]): 5 (Herbicidal rate of 90% or more (almost completely withered))

SMILES: CCCC(=O)Oc1c(C)nn(C)c(=O)c1-c1c(-c2ccc(C(F)(F)F)cc2)sc2c(F)cccc12 [4-045]
- herbicidal effect on barnyard grass (H) (barnyard grass [1]): 5 (Herbicidal rate of 90% or more (almost completely withered))
- Herbicidal effect, C: oval-leafed pondweed (oval-leafed pondweed): 0 (Herbicidal rate of 5% or less (almost no effect))
- herbicidal effect on I: wild oat (evaluation grade 0-5) (wild oat; [11]): 0 (Herbicidal rate of 5% or less (almost no effect))
- Herbicidal effect by soil treatment, H: barnyard grass (barnyard grass [2]): 0 (Herbicidal rate of 5% or less (almost no effect))
- herbicidal effect on O: lambsquarters (evaluation grade 0-5) (lambsquarters; [11]): 3 (Herbicidal rate of 40% or more and less than 70%)
- Herbicidal effect by soil treatment, N: redroot pigweed (redroot pigweed [3]): 4 (Herbicidal rate of 70% or more and less than 90%)
- herbicidal effect rating, A: late watergrass (late watergrass): 3 (Herbicidal rate of 40% or more and less than 70%)
- herbicidal effect on J: blackgrass (evaluation grade 0-5) (blackgrass [4]; [11]): 0 (Herbicidal rate of 5% or less (almost no effect))
- herbicidal effect rating, B: Japanese bulrush (Japanese bulrush [5]): 0 (Herbicidal rate of 5% or less (almost no effect))
- herbicidal effect on R: persian speedwell (evaluation grade 0-5) (persian speedwell; [11]): 5 (Herbicidal rate of 90% or more (almost completely withered))
- herbicidal effect on N: redroot pigweed (evaluation grade 0-5) (redroot pigweed [6]; [11]): 4 (Herbicidal rate of 70% or more and less than 90%)
- Herbicidal effect, B: Japanese bulrush (Japanese bulrush [7]): 2 (Herbicidal rate of 20% or more and less than 40%)
- Herbicidal effect by soil treatment, J: blackgrass (blackgrass [8]): 0 (Herbicidal rate of 5% or less (almost no effect))
- herbicidal effect on F: southern crabgrass (evaluation grade 0-5) (southern crabgrass [9]; [11]): 0 (Herbicidal rate of 5% or less (almost no effect))
- herbicidal effect on G: green foxtail (evaluation grade 0-5) (green foxtail; [11]): 0 (Herbicidal rate of 5% or less (almost no effect))
- Herbicidal effect by soil treatment, P: chickweed (chickweed): 3 (Herbicidal rate of 40% or more and less than 70%)
- Herbicidal effect by soil treatment, F: southern crabgrass (southern crabgrass [10]): 0 (Herbicidal rate of 5% or less (almost no effect))

SMILES: COc1ccccc1-c1sc2cc(OCC(C)C)ccc2c1-c1c(O)c(C)nn(C)c1=O [3-107]
- herbicidal effect on barnyard grass (H) (barnyard grass [1]): 4 (Herbicidal rate of 70% or more and less than 90%)
- Herbicidal effect, C: oval-leafed pondweed (oval-leafed pondweed): 5 (Herbicidal rate of 90% or more (almost completely withered))
- I: wild oat, herbicidal effect grade (wild oat): 0 (Herbicidal rate of 5% or less (almost no effect))
- H: barnyard grass, herbicidal effect grade (barnyard grass [2]): 3 (Herbicidal rate of 40% or more and less than 70%)
- O: lambsquarters, herbicidal effect grade (lambsquarters): 5 (Herbicidal rate of 90% or more (almost completely withered))
- N: redroot pigweed, herbicidal effect grade (redroot pigweed [3]): 5 (Herbicidal rate of 90% or more (almost completely withered))
- herbicidal effect rating, A: late watergrass (late watergrass): 3 (Herbicidal rate of 40% or more and less than 70%)
- J: blackgrass, herbicidal effect grade (blackgrass [4]): 4 (Herbicidal rate of 70% or more and less than 90%)
- herbicidal effect rating, B: Japanese bulrush (Japanese bulrush [5]): 5 (Herbicidal rate of 90% or more (almost completely withered))
- R: persian speedwell, herbicidal effect grade (persian speedwell): 5 (Herbicidal rate of 90% or more (almost completely withered))
- N: redroot pigweed, herbicidal effect grade (redroot pigweed [6]): 5 (Herbicidal rate of 90% or more (almost completely withered))
- Herbicidal effect, B: Japanese bulrush (Japanese bulrush [7]): 5 (Herbicidal rate of 90% or more (almost completely withered))
- J: blackgrass, herbicidal effect grade (blackgrass [8]): 0 (Herbicidal rate of 5% or less (almost no effect))
- F: southern crabgrass, herbicidal effect grade (southern crabgrass [9]): 5 (Herbicidal rate of 90% or more (almost completely withered))
- G: green foxtail, herbicidal effect grade (green foxtail): 5 (Herbicidal rate of 90% or more (almost completely withered))
- P: chickweed, herbicidal effect grade (chickweed): 1 (Herbicidal rate of 5% or more and less than 20%)
- F: southern crabgrass, herbicidal effect grade (southern crabgrass [10]): 3 (Herbicidal rate of 40% or more and less than 70%)

Source: US20230085307A1, “PYRIDAZINONE COMPOUND AND HERBICIDE” (NISSAN CHEMICAL CORPORATION, priority 2019, published 2023)
